Laboratory results reported in PubChem BioAssay (NCI).
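Values below derive from 48-hour exposures of cells grown in 96-well plates, with endpoints linearly interpolated between the two concentrations bracketing the appropriate inhibition level. Definition used: TGI = concentration required for complete inhibition of growth.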

What was measured:
Experiment in all cases: NCI tumour cell line growth inhibition, 48 h
[1] = system: IGROV1 ovarian
[2] = system: SK-MEL-28 melanoma
[3] = system: SK-MEL-5 melanoma
[4] = system: MCF7 breast
[5] = system: LOX IMVI melanoma
[6] = system: HCC-2998 colon
[7] = system: HS 578T breast
[8] = system: MDA-MB-231 breast
[9] = system: ACHN renal
[10] = system: A549 NSCLC
[11] = system: KM12 colon
[12] = system: HCT-15 colon
[13] = system: SN12C renal
[14] = system: SNB-19 CNS
[15] = system: HT29 colon
[16] = system: CAKI-1 renal
[17] = system: M14 melanoma
[18] = system: OVCAR-8 ovarian
[19] = system: NCI-H23 lung
[20] = system: NCI-H226 lung

| SMILES | TGI [1] [µM] | TGI [2] [µM] | TGI [3] [µM] | TGI [4] [µM] | TGI [5] [µM] | TGI [6] [µM] | TGI [7] [µM] | TGI [8] [µM] | TGI [9] [µM] | TGI [10] [µM] | TGI [11] [µM] | TGI [12] [µM] | TGI [13] [µM] | TGI [14] [µM] | TGI [15] [µM] | TGI [16] [µM] | TGI [17] [µM] | TGI [18] [µM] | TGI [19] [µM] | TGI [20] [µM] |
| --- | --- | --- | --- | --- | --- | --- | --- | --- | --- | --- | --- | --- | --- | --- | --- | --- | --- | --- | --- | --- |
| CCN1CCN(c2ccc(Nc3ccnc4ccc5c(nnn5C)c34)cc2)CC1 | 32.6 | 23.9 | 23 | 14.8 | 13.1 | 6.94 | 31.9 | 27.2 | 11.5 | 22.3 | 12.4 | 16.4 | 16 | 15.1 | 72.4 | 21.7 | 23.9 | 40.8 | 29.4 | – |
| COC(=O)c1sc2ncc3c(c2c1N)CCCCCC3 | > 100 | > 100 | > 100 | > 100 | > 100 | > 100 | – | > 100 | > 100 | > 100 | > 100 | > 100 | > 100 | > 100 | > 100 | > 100 | > 100 | > 100 | > 100 | > 100 |
| CC(=O)O[C@H]1C(=O)[C@@]2(C)[C@H]([C@H](OC(=O)c3cccc(C(F)(F)F)c3)[C@]3(O)C[C@H](OC(=O)[C@H](O)[C@@H](NC(=O)c4ccccc4)c4ccccc4)C(C)=C1C3(C)C)[C@]1(OC(C)=O)CO[C@@H]1C[C@@H]2O | > 23 | > 25 | 4.33 | – | – | – | 0.0653 | > 13.1 | > 9.46 | > 25 | 24.8 | > 25 | > 25 | > 25 | 3.84 | > 25 | 11.9 | 7.61 | > 25 | 11.6 |
| COc1cc(C)c(/C=C/C(=O)N2C(=O)OC[C@@H]2c2ccccc2)c(C)c1 | > 100 | > 100 | > 100 | – | > 100 | > 100 | > 100 | > 100 | > 100 | > 100 | > 100 | > 100 | > 100 | > 100 | 63.2 | > 100 | > 100 | > 100 | > 100 | > 100 |
| O=C(CC(C(=O)c1ccco1)c1ccsc1)c1ccco1 (stereo not drawn) | > 100 | > 100 | > 100 | > 100 | > 100 | > 100 | > 100 | > 100 | > 100 | > 100 | > 100 | > 100 | > 100 | – | > 100 | > 100 | > 100 | > 100 | > 100 | > 100 |
| COc1cc(C2c3cc(O)c(OC)cc3C3OCC2C3CO)ccc1O (stereo not drawn) | – | > 100 | > 100 | > 100 | > 100 | > 100 | – | > 100 | > 100 | > 100 | > 100 | > 100 | – | > 100 | > 100 | > 100 | > 100 | – | > 100 | > 100 |
| N=C(N)N1CCC(N2CCOCC2)CC1 | > 100 | > 100 | > 100 | > 100 | – | > 100 | > 100 | > 100 | > 100 | > 100 | > 100 | > 100 | > 100 | > 100 | > 100 | – | > 100 | > 100 | > 100 | > 100 |
| O=C1C(N2CCNCC2)=C(Cl)C(=O)c2ncccc21 | > 10 | > 10 | > 10 | > 10 | – | > 10 | > 10 | > 10 | > 10 | > 10 | > 10 | > 10 | > 10 | > 10 | > 10 | > 10 | > 10 | > 10 | > 10 | > 10 |
| CC(C)=NN/C(=N\S(=O)(=O)c1ccc(C)cc1)Nc1ccc(Cl)cc1 | > 100 | > 100 | > 100 | > 100 | > 100 | – | > 100 | > 100 | > 100 | > 100 | > 100 | > 100 | > 100 | > 100 | > 100 | > 100 | > 100 | > 100 | > 100 | > 100 |
| Cc1ccc2ccccc2c1NC1=NCCO1 | > 100 | > 100 | > 100 | > 100 | – | > 100 | > 100 | > 100 | > 100 | > 100 | > 100 | > 100 | > 100 | > 100 | > 100 | – | > 100 | > 100 | > 100 | 74.5 |
| Cc1ccc2c(=O)c3cccc(CC(=O)O)c3[nH]c2c1C | > 100 | > 100 | > 100 | > 100 | > 100 | – | > 100 | > 100 | > 100 | > 100 | > 100 | > 100 | > 100 | > 100 | > 100 | > 100 | > 100 | > 100 | > 100 | > 100 |
| CCOP(=O)(CCCC(O)CNc1cc(Cl)nc(N)n1)OCC (stereo not drawn) | > 100 | > 100 | > 100 | > 100 | > 100 | > 100 | > 100 | > 100 | > 100 | > 100 | > 100 | > 100 | > 100 | – | > 100 | > 100 | – | > 100 | > 100 | > 100 |
| COc1cc(CNc2ccc3nc4n(c(=O)c3c2)CCCCC4)cc(OC)c1OC | > 100 | > 100 | 50.8 | > 100 | > 100 | – | > 100 | > 100 | > 100 | > 100 | > 100 | > 100 | > 100 | – | > 100 | > 100 | > 100 | > 100 | > 100 | > 100 |
| CC1(C)O[C@@H]2[C@@H](COC(=O)c3ccccc3)C[C@@H](C#N)[C@@H]2O1 | > 100 | > 100 | > 100 | > 100 | > 100 | > 100 | > 100 | > 100 | > 100 | > 100 | > 100 | > 100 | > 100 | > 100 | > 100 | – | > 100 | > 100 | > 100 | > 100 |
| Cn1nc2ccc3nccc(N4CCN(CCO)CC4)c3c2n1 | > 100 | > 100 | > 100 | > 100 | – | > 100 | > 100 | > 100 | > 100 | > 100 | > 100 | > 100 | > 100 | > 100 | > 100 | – | > 100 | > 100 | > 100 | > 100 |
| CC(=O)N1OC(C)CC1Nc1ccc(Br)cc1 (stereo not drawn) | > 100 | – | > 100 | > 100 | – | 22.4 | > 100 | – | > 100 | > 100 | > 100 | > 100 | > 100 | > 100 | > 100 | – | > 100 | > 100 | > 100 | > 100 |
| CCCCc1c2c(nc3c1CCCC3O)CCCC2 (stereo not drawn) | > 100 | – | > 100 | > 100 | – | > 100 | > 100 | > 100 | > 100 | > 100 | > 100 | > 100 | > 100 | > 100 | > 100 | > 100 | > 100 | > 100 | > 100 | > 100 |
| CNC(=O)c1n[nH]nc1Sc1c([N+](=O)[O-])ncn1C | > 100 | > 100 | > 100 | > 100 | > 100 | > 100 | > 100 | > 100 | > 100 | > 100 | > 100 | > 100 | > 100 | > 100 | > 100 | > 100 | > 100 | > 100 | > 100 | – |
| Cc1nc2sc3ccccc3n2c(=O)c1N=Nc1ccc(Br)cc1 | > 100 | > 100 | > 100 | > 100 | > 100 | – | > 100 | > 100 | > 100 | > 100 | > 100 | > 100 | > 100 | > 100 | > 100 | > 100 | > 100 | > 100 | > 100 | > 100 |
| Oc1cc(Br)cc2cccnc12 | 8.22 | > 100 | 15.1 | – | – | 98.2 | > 100 | 19.1 | > 69 | > 87.2 | > 100 | > 100 | > 55.6 | > 100 | 35 | 39 | > 37.7 | > 35.4 | 31.2 | 58 |
| c1ccc(Cc2nc(Cc3n[nH]c(Cc4ccccc4)n3)n[nH]2)cc1 | > 100 | > 100 | > 100 | > 100 | > 100 | > 100 | > 100 | > 100 | > 100 | > 100 | > 100 | > 100 | > 100 | > 100 | > 100 | – | > 100 | > 100 | > 100 | – |
| c1ccc2c(c1)nc1n2CCCn2ccnc2-1 | > 100 | > 100 | > 100 | > 100 | > 100 | – | > 100 | > 100 | > 100 | > 100 | > 100 | > 100 | > 100 | > 100 | > 100 | – | > 100 | > 100 | > 100 | > 100 |
| O=C(O)CN1CCN2CCOCCOCCN(CC1)CCN(CC(=O)O)CC2 | > 100 | > 100 | > 100 | > 100 | > 100 | – | > 100 | > 100 | > 100 | > 100 | > 100 | > 100 | > 100 | > 100 | > 100 | > 100 | > 100 | > 100 | – | > 100 |
| CCCCCCCCCc1cc(-c2ccc(C=O)s2)sc1-c1ccc(C=O)s1 | 56.3 | > 100 | 34.6 | > 54.3 | 37 | > 78.7 | 46.5 | > 77.9 | > 100 | > 100 | > 100 | > 72.7 | > 84 | > 87.1 | > 100 | – | 25 | > 59 | 82.5 | 9.94 |
| c1ccc(N=C(Nc2ccccc2)N2CCCCC2)cc1 | > 100 | > 100 | – | > 100 | > 100 | – | > 100 | – | > 100 | > 100 | > 100 | > 100 | > 100 | > 100 | > 100 | > 100 | 84.9 | > 100 | > 100 | > 100 |
| Nc1nc(N)c(C2=CCNCC2)c(=O)[nH]1 | > 100 | > 100 | > 100 | > 100 | – | – | > 100 | > 100 | > 100 | > 100 | > 100 | > 100 | > 100 | > 100 | > 100 | > 100 | > 100 | > 100 | > 100 | > 100 |
